Measurements published in publication PMC12655172, “Borylated 5-Membered Ring Iminosugars: Synthesis and Biological Evaluation for Glycosidase Inhibition and Anticancer Properties for Application in Boron Neutron Capture Therapy (BNCT)—Part 2” (Pharmaceuticals, 2025).
Values joined by “and” are separate entries in the source; they are usually repeats but may differ in a detail not shown here. Equal values may be shown once.

Assays:
Type in all cases: biochemical
[1] = test system: α-D-glucosidase (human lysosome); experiment: Glycosidase inhibition (Table 2 panel); conditions: at 100 μM
[2] = target: T1, β-D-galactosidase (bovine liver) (Bos taurus, UniProt F1MNT6); experiment: Glycosidase inhibition (Table 2 panel)
T1 sequence (F1MNT6 1-469): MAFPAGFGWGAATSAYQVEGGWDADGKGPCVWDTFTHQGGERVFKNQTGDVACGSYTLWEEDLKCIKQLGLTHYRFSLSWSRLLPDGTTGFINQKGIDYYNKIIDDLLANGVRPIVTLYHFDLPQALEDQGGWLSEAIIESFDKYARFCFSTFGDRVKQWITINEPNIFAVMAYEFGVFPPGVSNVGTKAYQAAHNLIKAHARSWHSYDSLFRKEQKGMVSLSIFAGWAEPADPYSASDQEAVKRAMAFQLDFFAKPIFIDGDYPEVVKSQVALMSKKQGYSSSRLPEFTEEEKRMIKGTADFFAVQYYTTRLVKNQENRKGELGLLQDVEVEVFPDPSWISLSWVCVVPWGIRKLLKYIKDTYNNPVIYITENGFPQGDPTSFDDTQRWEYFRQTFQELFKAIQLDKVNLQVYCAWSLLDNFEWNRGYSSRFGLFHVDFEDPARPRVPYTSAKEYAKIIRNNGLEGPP
Summary of the method: (§1)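 Absorbance at 400 nm quantified para-nitrophenol liberated from […] para-nitrophenyl glycoside substrate, at the optimal pH for each enzyme […]. Na2CO3 […] terminated the reactions.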

[3] = test system: T2, α-L-fucosidase (bovine kidney); experiment: Glycosidase inhibition (Table 2 panel); conditions: at 1000 μM
T2 construct: purchased Sigma-Aldrich; host or cells: bovine kidney
Summary of the method: as §1

[4] = target: T3, β-D-glucosidase (bovine liver) (Bos taurus, UniProt F1MNT6); experiment: Glycosidase inhibition (Table 2 panel)
T3 sequence (F1MNT6 1-469): T1 sequence (F1MNT6 1-469)
Summary of the method: as §1

[5] = test system: T4, trehalase (porcine kidney); experiment: Glycosidase inhibition (Table 2 panel)
T4 construct: purchased Sigma-Aldrich; host or cells: porcine kidney

α-D-glucosidase (rice) = α-D-glucosidase (rice) (Oryza sativa subsp. japonica, UniProt Q653V7); experiment: Glycosidase inhibition (Table 2 panel)
α-D-glucosidase (rice), sequence (Q653V7 34-885): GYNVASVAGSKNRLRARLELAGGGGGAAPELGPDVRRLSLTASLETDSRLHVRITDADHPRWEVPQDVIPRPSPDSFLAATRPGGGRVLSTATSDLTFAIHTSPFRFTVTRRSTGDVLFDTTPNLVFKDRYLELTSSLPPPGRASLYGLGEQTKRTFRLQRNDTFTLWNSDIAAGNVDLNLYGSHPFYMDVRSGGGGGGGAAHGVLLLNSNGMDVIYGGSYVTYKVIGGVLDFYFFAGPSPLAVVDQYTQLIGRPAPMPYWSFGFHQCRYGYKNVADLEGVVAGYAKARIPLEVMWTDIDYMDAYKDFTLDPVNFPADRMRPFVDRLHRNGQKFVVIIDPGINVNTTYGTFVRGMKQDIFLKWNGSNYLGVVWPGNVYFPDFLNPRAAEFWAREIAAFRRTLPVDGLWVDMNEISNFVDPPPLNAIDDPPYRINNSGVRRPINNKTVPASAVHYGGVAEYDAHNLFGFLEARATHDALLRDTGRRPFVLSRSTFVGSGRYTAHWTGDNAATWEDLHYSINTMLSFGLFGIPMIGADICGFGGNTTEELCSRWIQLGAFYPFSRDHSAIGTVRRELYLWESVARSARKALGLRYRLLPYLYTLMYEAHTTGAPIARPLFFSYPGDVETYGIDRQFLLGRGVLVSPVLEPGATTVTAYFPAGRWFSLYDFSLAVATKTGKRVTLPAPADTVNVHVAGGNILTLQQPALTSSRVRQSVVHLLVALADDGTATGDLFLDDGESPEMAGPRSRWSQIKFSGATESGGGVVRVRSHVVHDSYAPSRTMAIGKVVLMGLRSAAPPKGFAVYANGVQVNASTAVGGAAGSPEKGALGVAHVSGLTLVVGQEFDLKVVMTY

[6] = test system: α-D-glucosidase (rat intestinal maltase); experiment: Glycosidase inhibition (Table 2 panel)
[7] = test system: α-L-rhamnosidase (P. decumbens); experiment: Glycosidase inhibition (Table 2 panel)
Summary of the method: as §1

[8] = test system: T5, α-D-mannosidase (Jack bean); experiment: Glycosidase inhibition (Table 2 panel)
T5 construct: purchased Sigma-Aldrich; host or cells: Jack bean
Summary of the method: as §1

β-D-glucosidase (almond) = experiment: Glycosidase inhibition (Table 2 panel)
Summary of the method: as §1

[9] = test system: N-acetyl-β-D-hexosaminidase (rat intestine); experiment: Glycosidase inhibition (Table 3 panel); conditions: 1 mg/mL aqueous solution; run in water
Summary of the method: (§2)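 Enzymes tested at 27 °C in citric acid/disodium hydrogen phosphate buffer at each enzyme's optimum pH, with 1 mg/mL aqueous extract and […] para-nitrophenyl substrate. Reactions stopped with 0.4 M glycine (pH 10.4) within the exponential phase; absorbance read at 405 nm, triplicate means.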

[10] = test system: α-D-glucosidase (rat intestine); experiment: Glycosidase inhibition (Table 3 panel); conditions: 1 mg/mL aqueous solution; run in water
Summary of the method: as §2

[11] = test system: β-D-glucosidase (human lysosome); experiment: Glycosidase inhibition (Table 2 panel); conditions: at 100 μM
[12] = test system: β-D-glucanase (T. Longibrachiatum); experiment: Glycosidase inhibition (Table 2 panel); conditions: at 100 μM
[13] = test system: β-D-galactosidase (E. coli); experiment: Glycosidase inhibition (Table 2 panel); conditions: at 100 μM
[14] = test system: T6, amyloglucosidase (A. niger); experiment: Glycosidase inhibition (Table 2 panel)
T6 construct: purchased Sigma-Aldrich
Excerpt: (§3) The enzymes α-D-glucosidase (yeast), β-D-glucosidases (almond, bovine liver), α-D-galactosidase (coffee beans), β-D-galactosidase (bovine liver), α-D-mannosidase (Jack bean), β-D-mannosidase (snail), α-L-rhamnosidase (P. decumbens), α-L-fucosidase (bovine kidney), trehalase (porcine kidney), β-D-glucuronidases (E. coli, bovine liver), amyloglucosidase (A. niger), para-nitrophenyl glycosides, and various disaccharides were purchased from Sigma-Aldrich Co (St. Louis, MO, USA).
(§4) Brush border membranes were prepared from the rat small intestine according to the method of Kessler et al., and were assayed at pH 6.8 for rat intestinal maltase using maltose. […] The reaction was stopped by heating at 100 °C for 3 min. After centrifugation (600 g; 10 min), the resulting reaction mixture was added to the Glucose CII-test Wako (Wako Pure Chemical Ind., Osaka, Japan). […] Other glycosidase activities were determined using an appropriate para-nitrophenyl glycoside as substrate at the optimum pH of each enzyme. The reaction mixture contained the substrate ([…]) and the appropriate amount of enzyme. The reaction was stopped by the addition of Na2CO3 (400 μM). The released para-nitrophenol was measured spectrometrically at 400 nm. All reactions were run in methanol.

[15] = test system: T7, β-D-glucuronidase (E. coli); experiment: Glycosidase inhibition (Table 2 panel)
T7 construct: purchased Sigma-Aldrich
Excerpt: as §3, §4

α-D-glucosidase (yeast) = target: T8, α-D-glucosidase (yeast) (Saccharomyces cerevisiae, UniProt P53341); experiment: Glycosidase inhibition (Table 2 panel); conditions: read-out: inhibition % α-D-Glucosidase Yeast
T8 construct: purchased Sigma-Aldrich
T8 sequence (P53341 whole entry): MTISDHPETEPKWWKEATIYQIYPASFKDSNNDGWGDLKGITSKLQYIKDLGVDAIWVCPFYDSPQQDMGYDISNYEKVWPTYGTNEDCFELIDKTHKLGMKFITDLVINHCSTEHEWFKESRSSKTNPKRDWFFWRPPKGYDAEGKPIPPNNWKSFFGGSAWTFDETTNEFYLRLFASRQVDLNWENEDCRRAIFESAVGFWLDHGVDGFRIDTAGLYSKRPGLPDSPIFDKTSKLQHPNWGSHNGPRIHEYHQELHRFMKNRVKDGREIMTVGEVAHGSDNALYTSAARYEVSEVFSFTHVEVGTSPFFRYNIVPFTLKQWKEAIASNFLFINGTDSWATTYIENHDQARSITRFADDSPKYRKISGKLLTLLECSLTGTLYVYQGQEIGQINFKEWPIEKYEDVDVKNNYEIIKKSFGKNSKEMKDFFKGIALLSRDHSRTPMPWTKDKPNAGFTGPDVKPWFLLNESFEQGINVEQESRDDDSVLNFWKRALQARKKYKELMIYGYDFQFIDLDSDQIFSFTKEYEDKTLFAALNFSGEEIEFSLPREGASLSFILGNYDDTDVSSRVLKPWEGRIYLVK
Excerpt: as §3, §4

| Structure (SMILES) | inhibition % α-D-Glucosidase Human Lysosome [1] | inhibition % α-L-Fucosidase Bovine Kidney [3] | inhibition at 100 µM [4] [%] | inhibition % Trehalase Porcine Kidney ([5]; at 100 μM) | inhibition % Trehalase Porcine Kidney ([5]; at 1000 μM) | inhibition at 100 µM (α-D-glucosidase (rice)) [%] | inhibition at 1000 µM (α-D-glucosidase (rice)) [%] | inhibition % α-D-Glucosidase Rat Intestinal Maltase ([6]; at 100 μM) | inhibition % α-D-Glucosidase Rat Intestinal Maltase ([6]; at 1000 μM) | inhibition % α-L-Rhamnosidase P. decumbens ([7]; at 100 μM) | inhibition % α-L-Rhamnosidase P. decumbens ([7]; at 1000 μM) | inhibition % α-D-Mannosidase Jack Bean ([8]; at 100 μM) | inhibition % α-D-Mannosidase Jack Bean ([8]; at 1000 μM) | inhibition % β-D-Glucosidase Almond (β-D-glucosidase (almond); at 100 μM) | inhibition % β-D-Glucosidase Almond (β-D-glucosidase (almond); at 1000 μM) | Percentage inhibition N-Acetyl-β-D-Hexosaminidase Rat Intestine [9] [%] | Percentage inhibition α-D-Glucosidase Rat Intestine [10] | inhibition % β-D-Glucosidase Human Lysosome [11] | inhibition % β-D-Glucanase T. Longibrachiatum [12] | inhibition % β-D-Galactosidase E. coli [13] | other results |
| --- | --- | --- | --- | --- | --- | --- | --- | --- | --- | --- | --- | --- | --- | --- | --- | --- | --- | --- | --- | --- | --- |
| CC1(C)O[C@H]2O[C@H]3[C@@H]([C@H]2O1)N(Cc1cccc(B2OC(C)(C)C(C)(C)O2)c1)C[C@H]3O [meta 2, N-(3-Methylphenylboronic acid pinacol ester)-3,6-dideoxy-3,6-imino-1,2-O-isopropylidene-α-D-gulofuranose] | ^cNI ^d(3.9%) | ^aNI ^b(3.8%) | 0 | ^cNI ^d(0%) | ^aNI ^b(5.8%) | 0 | 2.9 | ^cNI ^d(5.8%) | ^aNI ^b(12.4%) | ^cNI ^d(1.5%) | ^aNI ^b(0%) | ^cNI ^d(7.5%) | ^aNI ^b(0%) | ^cNI ^d(6.8%) | ^aNI ^b(12.6%) | 11.5 | 16.8% | ^cNI ^d(0%) | ^cNI ^d(3.9%) | ^cNI ^d(0%) | inhibition at 100 µM ([2]; at 100 μM): 2.2%; inhibition at 1000 µM ([2]; at 1000 μM): 41.8%; inhibition at 1000 µM ([4]; at 1000 μM): 32.7%; inhibition % Amyloglucosidase A. niger ([14]; at 100 μM): ^cNI ^d(1.4%); inhibition % Amyloglucosidase A. niger ([14]; at 1000 μM): ^aNI ^b(0%); inhibition % β-D-Glucuronidase E. coli ([15]; at 100 μM): ^cNI ^d(13.7%); inhibition % β-D-Glucuronidase E. coli ([15]; at 1000 μM): ^aNI ^b(5.6%); inhibition at 100 µM (α-D-glucosidase (yeast)): 8.8%; inhibition at 1000 µM (α-D-glucosidase (yeast)): 0% |
| OB(O)c1cccc(CN2C[C@@H](O)[C@H]3OC(O)[C@H](O)[C@H]32)c1 (stereo partly drawn) [meta 3, N-(3-Methylphenylboronic acid)-3,6-dideoxy-3,6-imino-D-gulofuranose] | ^cNI ^d(3.5%) | ^aNI ^b(3.8%) | 8.2 | ^cNI ^d(20.9%) | ^aNI ^b(0%) | 0 | 5.9 | ^cNI ^d(12.3%) | ^aNI ^b(2.0%) | ^cNI ^d(1.2%) | ^aNI ^b(3.2%) | ^cNI ^d(0%) | ^aNI ^b(0%) | ^cNI ^d(24.8%) | ^aNI ^b(45.8%) | 8.7 | 12.1% and 8.9% | ^cNI ^d(6.6%) | ^cNI ^d(0%) | ^cNI ^d(0.2%) | inhibition % Amyloglucosidase A. niger ([14]; at 100 μM): ^cNI ^d(24.6%); inhibition % Amyloglucosidase A. niger ([14]; at 1000 μM): ^aNI ^b(1.5%); inhibition % β-D-Glucuronidase E. coli ([15]; at 100 μM): ^cNI ^d(16.2%); inhibition % β-D-Glucuronidase E. coli ([15]; at 1000 μM): ^aNI ^b(36.9%); inhibition at 100 µM (α-D-glucosidase (yeast)): 1.4%; inhibition at 1000 µM (α-D-glucosidase (yeast)): 37% |
| OB(O)c1ccccc1CN1C[C@@H](O)[C@H]2OC(O)[C@H](O)[C@H]21 (stereo partly drawn) [ortho 3, N-(2-Methylphenylboronic acid)-3,6-dideoxy-3,6-imino-D-gulofuranose] | ^cNI ^d(0.3%) | ^aNI ^b(2.1%) | 0 | ^cNI ^d(0%) | ^aNI ^b(0%) | 0 | 0 | ^cNI ^d(0%) | ^aNI ^b(0.7%) | ^cNI ^d(0%) | ^aNI ^b(3.2%) | ^cNI ^d(3.8%) | ^aNI ^b(0%) | ^cNI ^d(13.7%) | ^aNI ^b(38.8%) | 19.2 | −1.4% | ^cNI ^d(0%) | ^cNI ^d(0%) | ^cNI ^d(4.4%) | inhibition % Amyloglucosidase A. niger ([14]; at 100 μM): ^cNI ^d(0%); inhibition % Amyloglucosidase A. niger ([14]; at 1000 μM): ^aNI ^b(2.1%); inhibition % β-D-Glucuronidase E. coli ([15]; at 100 μM): ^cNI ^d(0%); inhibition % β-D-Glucuronidase E. coli ([15]; at 1000 μM): ^aNI ^b(8.4%); inhibition at 100 µM (α-D-glucosidase (yeast)): 2.9%; inhibition at 1000 µM (α-D-glucosidase (yeast)): 1% |
